Laboratory results as given in US12011444B2, “N-substituted indole derivatives as PGE2 receptor modulators” (Idorsia Pharmaceuticals Ltd, priority 2015, dated 2024).

Legend:
PTRGER4 (EP4) = PTRGER4 (EP4) (Homo sapiens (Human), UniProt P35408); assay: hEP4 b-arrestin assay (PathHunter HEK 293 PTGER4 b-arrestin cells); assay type: cell-based
In short: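 Stably transfected HEK293 cells carrying EP4–ProLink and β-arrestin 2–EA (β-gal fragment complementation), pre-incubated with compound 15 min at 37 °C, then stimulated with PGE2 (20 nM final) for 120 min at 37 °C. Chemiluminescence read after 1 h detection reagent at room temperature; activity per concentration expressed as percent of DMSO control.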

PTGER2 (EP2) = PTGER2 (EP2) (Homo sapiens (Human), UniProt P43116); assay: hEP2 b-arrestin assay (PathHunter HEK 293 PTGER2 b-arrestin cells); assay type: cell-based
Sequence of PTGER2 (EP2) (P43116 whole entry, the tested form may be a part): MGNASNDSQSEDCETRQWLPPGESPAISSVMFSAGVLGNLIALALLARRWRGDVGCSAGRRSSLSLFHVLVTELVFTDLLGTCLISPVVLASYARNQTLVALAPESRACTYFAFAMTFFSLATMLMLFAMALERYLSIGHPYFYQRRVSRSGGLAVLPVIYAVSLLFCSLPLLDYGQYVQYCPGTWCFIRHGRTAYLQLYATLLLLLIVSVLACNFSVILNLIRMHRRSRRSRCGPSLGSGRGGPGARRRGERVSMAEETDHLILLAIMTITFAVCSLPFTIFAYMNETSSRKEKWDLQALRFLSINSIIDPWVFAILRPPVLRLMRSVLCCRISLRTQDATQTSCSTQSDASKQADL
In short: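 HEK293 cells expressing ProLink-tagged EP2 and EA-fused β-arrestin 2 (enzyme fragment complementation) were seeded 24 h, pre-incubated with compound 15 min at 37 °C, then stimulated with 5 μM PGE2 (final) for 120 min.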

[1] = hEP4 b-arrestin assay (values without asterisk)
[2] = hEP2 b-arrestin assay (values without asterisk)
[3] = antagonistic activity on hEP4, mean where measured multiple times
[4] = antagonistic activity on hEP2, mean where measured multiple times

Sequence of PTRGER4 (EP4) (P35408 whole entry, looked up, the tested form may be a part): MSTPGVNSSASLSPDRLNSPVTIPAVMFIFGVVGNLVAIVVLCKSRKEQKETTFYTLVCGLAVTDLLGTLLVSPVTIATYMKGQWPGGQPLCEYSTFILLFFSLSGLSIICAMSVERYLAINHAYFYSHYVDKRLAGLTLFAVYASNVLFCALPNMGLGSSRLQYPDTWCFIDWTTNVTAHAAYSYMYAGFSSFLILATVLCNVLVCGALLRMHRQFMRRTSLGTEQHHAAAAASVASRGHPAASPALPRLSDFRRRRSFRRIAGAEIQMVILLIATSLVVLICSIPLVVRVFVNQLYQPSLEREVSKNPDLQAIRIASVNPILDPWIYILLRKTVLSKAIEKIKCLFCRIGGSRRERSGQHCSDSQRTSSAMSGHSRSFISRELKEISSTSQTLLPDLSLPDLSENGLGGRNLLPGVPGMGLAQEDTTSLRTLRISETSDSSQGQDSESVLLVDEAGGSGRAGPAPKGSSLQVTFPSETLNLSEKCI

SMILES | IC50 (PTRGER4 (EP4); [1]) [µM] | IC50 (PTGER2 (EP2); [2]) [µM] | IC50 (PTRGER4 (EP4); [3]) [µM] | IC50 (PTGER2 (EP2); [4]) [µM]
COc1ccc(F)c2c1cc(C#N)n2CCNc1cc(-c2ccc(C3(F)COC3)s2)ncn1 [Example 1055, 7-Fluoro-1-(2-{6-[5-(3-fluoro-oxetan-3-yl)-thiophen-2-yl]-pyrimidin-4-ylamino}-ethyl)-4-methoxy-1H-indole-2-carbonitrile] | 0.06 | 0.249 | – | –
COc1ccc(F)c2c1cc(C)n2CCNc1cc(-c2cc(C)c(C(=O)O)c(F)c2)ncn1 [compound 277] | – | – | 0.416 | 0.017
COc1ccc(F)c2c1cc(C#N)n2CCNc1cc(-c2ccc3c(=O)[nH][nH]c(=O)c3c2)ncn1 [Example 1064, 1-{2-[6-(1,4-Dioxo-1,2,3,4-tetrahydro-phthalazin-6-yl)-pyrimidin-4-ylamino]-ethyl}-7-fluoro-4-methoxy-1H-indole-2-carbonitrile] | 0.151 | 0.025 | – | –
COc1cc(F)cc2c1cc(C)n2CCNc1cc(-c2ccc3cc[nH]c3c2)ncn1 [compound 63, [2-(6-Fluoro-4-methoxy-2-methyl-indol-1-yl)-ethyl]-[6-(1H-indol-6-yl)-pyrimidin-4-yl]-amine] | – | – | 0.227 | 0.026
COc1ccc(F)c2c1cc(C#N)n2CCNc1cc(-c2c[nH]c3cnccc23)ncn1 [Example 967, 7-Fluoro-4-methoxy-1-{2-[6-(1H-pyrrolo[2,3-c]pyridin-3-yl)-pyrimidin-4-ylamino]-ethyl}-1H-indole-2-carbonitrile] | 0.017 | 0.006 | – | –
COc1ccc(F)c2c1cc(C)n2CCNc1cc(-c2ccc(-c3noc(=O)[nH]3)cc2)ncn1 [compound 313, 3-(4-{6-[2-(7-Fluoro-4-methoxy-2-methyl-indol-1-yl)-ethylamino]-pyrimidin-4-yl}-phenyl)-4H-[1,2,4]oxadiazol-5-one] | – | – | 0.11 | 0.007
CCOc1cc(-c2cc(NCCn3c(C)cc4ccc(Cl)c(Cl)c43)ncn2)sc1C(=O)O [compound 236] | – | – | 0.413 | 0.009
N#Cc1cc2cccc(F)c2n1CCNc1cc(-c2cc(F)c(C(=O)O)s2)ncn1 [Example 901, 5-{6-[2-(2-Cyano-7-fluoro-indol-1-yl)-ethylamino]-pyrimidin-4-yl}-3-fluoro-thiophene-2-carboxylic acid] | 0.076 | 0.007 | – | –
CCOc1cc(-c2cc(NCCn3c(C)cc4c(OC)ccc(F)c43)ncn2)ccc1S(N)(=O)=O [compound 377] | – | – | 0.697 | 0.051
COc1ccc(Cl)c2c1cc(C)n2CCNc1cc(-c2ccc3c(c2)CCN3)ncn1 [compound 66, [2-(7-Chloro-4-methoxy-2-methyl-indol-1-yl)-ethyl]-[6-(2,3-dihydro-1H-indol-5-yl)-pyrimidin-4-yl]-amine] | – | – | 0.189 | 0.021
Cc1ccc(F)c2c1cc(C)n2CCNc1cc(-c2cc(F)c(C(=O)O)s2)ncn1 [compound 47] | – | – | 0.136 | 0.018
CCOc1cc(-c2cc(NCCn3c(C)cc4c(C)cccc43)ncn2)ccc1C(=O)O [compound 128, 4-{6-[2-(2,4-Dimethyl-indol-1-yl)-ethylamino]-pyrimidin-4-yl}-2-ethoxy-benzoic acid] | – | – | 0.417 | 0.016
COc1cc(F)cc2c1cc(C)n2CCNc1cc(-c2ccc(-c3ncno3)cc2)ncn1 [compound 184, [2-(6-Fluoro-4-methoxy-2-methyl-indol-1-yl)-ethyl]-[6-(4-[1,2,4]oxadiazol-5-yl-phenyl)-pyrimidin-4-yl]-amine] | – | – | 0.17 | 0.015
COc1ccc(F)c2c1cc(C)n2CCNc1cc(-c2ccc(CO)c(C)c2)ncn1 [compound 32, (4-{6-[2-(7-Fluoro-4-methoxy-2-methyl-indol-1-yl)-ethylamino]-pyrimidin-4-yl}-2-methyl-phenyl)-methanol] | – | – | 0.162 | 0.026
CCNc1cc(-c2cc(NCCn3c(C)cc4c(C)cc(F)cc43)ncn2)ccc1C(=O)O [compound 244] | – | – | 0.086 | 0.002
CCCCOc1cc(-c2cc(NCCn3c(C)cc4c(OC)cc(Cl)c(F)c43)ncn2)ccc1C(=O)O [Example 884, 2-Butoxy-4-{6-[2-(6-chloro-7-fluoro-4-methoxy-2-methyl-indol-1-yl)-ethylamino]-pyrimidin-4-yl}benzoic acid] | 0.084 | 0.01 | – | –
CCc1cc(-c2cc(NCCn3c(C)cc4c(OC)cccc43)ncn2)cc(Cl)c1C(=O)O [compound 160, 2-Chloro-6-ethyl-4-{6-[2-(4-methoxy-2-methyl-indol-1-yl)-ethylamino]-pyrimidin-4-yl}-benzoic acid] | – | – | 0.204 | 0.048
CCOc1cc(-c2cc(NCCn3c(C)cc4c(Cl)ccc(F)c43)ncn2)ccc1C(=O)O [compound 281] | – | – | 0.435 | 0.027

SMILES | IC50 (PTRGER4 (EP4); [1]) [µM] | IC50 (PTGER2 (EP2); [2]) [µM] | IC50 (PTRGER4 (EP4); [3]) [µM] | IC50 (PTGER2 (EP2); [4]) [µM]
Cc1ccc(F)c2c1cc(C)n2CCNc1cc(-c2ccc(C(=O)O)c(C3CC3)c2)ncn1 [compound 174, 2-Cyclopropyl-4-{6-[2-(7-fluoro-2,4-dimethyl-indol-1-yl)-ethylamino]-pyrimidin-4-yl}-benzoic acid] | – | – | 0.405 | 0.027
CCOc1cc(-c2cc(NCCn3c(C)cc4c(OC)ccc(F)c43)ncn2)sc1C(=O)NS(C)(=O)=O [Example 1022, N-(3-Ethoxy-5-{6-[2-(7-fluoro-4-methoxy-2-methyl-indol-1-yl)-ethylamino]-pyrimidin-4-yl}-thiophene-2-carbonyl)-methanesulfonamide] | 0.018 | 0.004 | – | –
COc1cc(F)cc2c1cc(C)n2CCNc1cc(-c2cc(OCC(F)(F)F)c(C(=O)O)s2)ncn1 [Example 838, 5-{6-[2-(6-Fluoro-4-methoxy-2-methyl-indol-1-yl)-ethylamino]-pyrimidin-4-yl}-3-(2,2,2-trifluoro-ethoxy)-thiophene-2-carboxylic acid] | 0.041 | 0.004 | – | –
COc1ccc(F)c2c1cc(C#N)n2CCNc1cc(-c2ccc(-c3cnc[nH]3)cc2)ncn1 [Example 829, 7-Fluoro-1-(2-{6-[4-(3H-imidazol-4-yl)-phenyl]-pyrimidin-4-ylamino}-ethyl)-4-methoxy-1H-indole-2-carbonitrile] | 0.012 | 0.015 | – | –
CCOc1cc(-c2cc(NCCn3c(C)c(F)c4ccccc43)ncn2)sc1C(=O)O [Example 875, 3-Ethoxy-5-{6-[2-(3-fluoro-2-methyl-indol-1-yl)-ethylamino]-pyrimidin-4-yl}-thiophene-2-carboxylic acid] | 0.026 | 0.004 | – | –
COc1ccc(F)c2c1cc(C)n2CCNc1cc(-c2ccc(CO)c(Cl)c2)ncn1 [compound 27, (2-Chloro-4-{6-[2-(7-fluoro-4-methoxy-2-methyl-indol-1-yl)-ethylamino]-pyrimidin-4-yl}-phenyl)-methanol] | – | – | 0.09 | 0.01
CCOc1cc(-c2cc(NCCn3c(C#N)cc4c(OC)ccc(F)c43)ncn2)sc1C(=O)OCC(=O)N(C)C [Example 1044, 5-{6-[2-(2-Cyano-7-fluoro-4-methoxy-indol-1-yl)-ethylamino]-pyrimidin-4-yl}-3-ethoxy-thiophene-2-carboxylic acid dimethylcarbamoylmethyl ester] | 0.003 | 0.009 | – | –
CCOc1cc(-c2cc(NCCn3c(C)cc4c(OC)ccc(F)c43)ncn2)ccc1CNC [compound 358] | – | – | 0.731 | 0.369
CCNC(=O)Nc1ccc(-c2cc(NCCn3c(C)cc4c(C)ccc(F)c43)ncn2)cc1OC [compound 374] | – | – | 0.067 | 0.053
Cc1ccc(F)c2c1cc(C)n2CCNc1cc(-c2ccc(NC(N)=O)cc2)ncn1 [compound 40, (4-{6-[2-(7-Fluoro-2,4-dimethyl-indol-1-yl)-ethylamino]-pyrimidin-4-yl}-phenyl)-urea] | – | – | 0.392 | 0.086
CCCCOc1cc(-c2cc(NCCn3c(C#N)cc4c(OC)ccc(F)c43)ncn2)ccc1C(=O)O [Example 872, 2-Butoxy-4-{6-[2-(2-cyano-7-fluoro-4-methoxy-indol-1-yl)-ethylamino]-pyrimidin-4-yl}-benzoic acid] | 0.018 | 0.012 | – | –
COc1cc(F)cc2c1cc(C)n2CCNc1cc(-c2ccc3c(c2)CCN3)ncn1 [compound 62, [6-(2,3-Dihydro-1H-indol-5-yl)-pyrimidin-4-yl]-[2-(6-fluoro-4-methoxy-2-methyl-indol-1-yl)-ethyl]-amine] | – | – | 0.032 | 0.011
COc1ccc(F)c2c1cc(C#N)n2CCNc1cc(-c2ccc(C(N)=O)s2)ncn1 [Example 900, 5-{6-[2-(2-Cyano-7-fluoro-4-methoxy-indol-1-yl)-ethylamino]-pyrimidin-4-yl)-thiophene-2-carboxylic acid amide] | 0.022 | 0.026 | – | –
COc1ccc(Cl)c2c1cc(C)n2CCNc1cc(-c2ccc3[nH]c(C)nc3c2)ncn1 [compound 80] | – | – | 0.713 | 0.238
CCc1cc(-c2cc(NCCn3c(C)cc4c(C)ccc(F)c43)ncn2)ccc1C(=O)O [compound 220] | – | – | 0.216 | 0.018
Cc1ccc(F)c2c1cc(C)n2CCNc1cc(-c2ccc(-c3cnco3)cc2)ncn1 [compound 97] | – | – | 0.527 | 0.177
COc1cccc2c1cc(C)n2CCNc1cc(-c2ccc3c(c2)CCN3)ncn1 [compound 12, [6-(2,3-Dihydro-1H-indol-5-yl)-pyrimidin-4-yl]-[2-(4-methoxy-2-methyl-indol-1-yl)-ethyl]-amine] | – | – | 0.144 | 0.011
CNc1cc(-c2cc(NCCn3c(C)cc4c(C)ccc(F)c43)ncn2)ccc1C(=O)O [compound 136, 4-{6-[2-(7-Fluoro-2,4-dimethyl-indol-1-yl)-ethylamino]-pyrimidin-4-yl}-2-methylamino-benzoic acid] | – | – | 0.048 | 0.005
